Experimental data taken from patent publication EP0411183A1, “Ascorbic acid derivative” (NIPPON HYPOX LABORATORIES INCORPORATED, priority 1989, dated 1991).

What was measured:
[1] = Antioxidant action examined by using stable radicals (DPPH reduction activity, M.S. Blois method); type: biochemical; conditions: 0.1 mM DPPH solution in ethanol, absorbance at 517 nm after 20 minutes; read-out: 50% radical eliminating concentration
Experimental: Test example 1 (Antioxidant action examined by using stable radicals)
Reduction activity of α,-α-diphenyl-β-picrylhydrazyl (DPPH) which was a stable free radical was examined according to the M.S. Blois method (Nature, vol. 181, page. 1199, 1958) and used as an index to antioxidant action. Thus, specimens were added to 3 mℓ of a 0.1 mM DPPH solution in ethanol, and absorbance at a wavelength of 517 nm was measured using a spectrophotometer after 20 minutes. The difference in absorbance from the solvent control [0.5% or less of dimethylformamide (DMF)] was taken as the reduction activity.

[2] = tested on: superoxide anion radicals; test: Effects on formazan formation in the xanthine-xanthine oxidase-Nitrotetrazolium Blue system; type: biochemical; conditions: for Inhibition ratio (%) of formazan formation: phosphate buffer pH 7.8, 30°C, 10 minutes; for formazan formation (result in words): summary of Table-3
Experimental: Specimens were added to a 0.05 M phosphate buffer solution (pH 7.8) containing xanthine, EDTA 2Na and Nitrotetrazolium Blue (NTB) so as to provide the respective final concentrations of 5x10⁻⁵ M, 1x10⁻⁴ M and 5x10⁻⁴ M and warmed at 30°C for 3 minutes. Xanthine oxidase (manufactured by Sigma Corp.) was added, and the resulting specimens were warmed at 30°C for 10 minutes to colorimetrically determine formazan formed by superoxide anion radicals. The inhibition ratio of formazan formation was determined from the results at concentrations of 0.5 mM and 4 mM of each specimen.

Row | Compound | IC50 [1] | Inhibition ratio (%) of formazan formation ([2]; Concentration 0.5 mM) | Inhibition ratio (%) of formazan formation ([2]; Concentration 4 mM) | formazan formation (result in words) [2]
1 | CC1(C)OCC(C2OC(=O)C(O)=C2OCc2ccccn2)O1 [compound 007, L-5,6-O-isopropylidene-3-O-2′-pyridylmethylascorbic acid] | 23 µM |  |  | 
2 | L-5,6-O-isopropylidene-3-O-(3-butanone) ascorbic acid [compound 022] | 20 µM | 22.6% | 26.7% | remarkably inhibited formazan formation
3 | L-5,6-O-isopropylidene-3-O-methylcarbomethylascorbic acid [compound 021] | 17 µM | 9.2% | 47.4% | remarkably inhibited formazan formation
